Source: US8415293B2, “Peptide mediators of cholesterol efflux” (The Regents of the University of California, priority 2008, dated 2013)
Values belong to the compound of their own block, whether it stands above or below them. Square brackets hold non-standard residues; d marks the D form. Ends that are not written are not given here.

How the values were obtained:
[1] = Scaled = (Raw + 2.061)/4.484; Black and Mould 1991; cited from earlier work
ABCA1 [2] = molecular target: T1, ABCA1 (Mus musculus, UniProt P41233); assay: Cholesterol efflux from [3H]cholesterol-labeled J774 macrophages ± cAMP (upregulates ABCA1); assay type: cell-based; settings: concentration dependence
T1 construct: cell lines in which cholesterol efflux can be enhanced using a cAMP analog that up-regulates ABCA1 protein expression (e.g., J774 macrophages); endogenous in cells; host or cells: J774 macrophages

ABCA1 [3] = molecular target: T1, ABCA1; assay: Cholesterol efflux activity of peptides after exposure to acrolein (MPO-derived oxidation product), J774 macrophages + cAMP; assay type: cell-based; settings: acrolein:peptide mole ratio 25:1, 18 h, 37° C.; efflux at 2 μg/ml
Procedure: Peptides corresponding to SEQ ID NO:2 and SEQ ID NO:12 were exposed to acrolein (acrolein:peptide mole ratio=25:1) for 18 h at 37° C. Control peptides were similarly incubated in the absence of acrolein. Control and acrolein-treated peptides were then dialyzed and used for cholesterol efflux experiments. […] J774 macrophages treated with cAMP, which up-regulates ABCA1, were used in both panels. Cholesterol efflux assays were conducted using peptides at 2 μg/ml serum free-medium.

ABCA1 [4] = molecular target: T1, ABCA1; assay: Cholesterol efflux from [3H]cholesterol-labeled J774 macrophages ± cAMP (upregulates ABCA1); assay type: cell-based; settings: for % cholesterol efflux (8 hours): J774 macrophages; for cholesterol efflux from cells induced for the ABCA1 response (in words): lipid-free peptide 30 μg/ml, 8 h, +cAMP compared to no cAMP
Text: Suitable cholesterol efflux assays are described in, […] and Oda, M. N., Biochemistry, 41:2089-2096 (2002); Jia et al., Biochem. Biophys. Res. Common., 297:206-213 (2002). In some embodiments, a polypeptide known to mediate cholesterol efflux (e.g., helix 9/10 of Apo A-I) is used to screen for additional mediators of cholesterol efflux in a cell based assay. For example, cell lines in which cholesterol efflux can be enhanced using a cAMP analog that up-regulates ABCA1 protein expression (e.g., J774 macrophages) can conveniently be used to assess the ability of a polypeptide of the present invention to mediate cholesterol efflux. The cells are incubated with labeled cholesterol (e.g., [^3H]cholesterol) under conditions appropriate for cholesterol uptake by the cells. Thus, cAMP or cAMP analogs (e.g., CPT-cAMP) are incubated with the cells for a suitable time before the initiation of cellular cholesterol efflux, i.e., prior to contacting the cells with a test polypeptide. Measurement of labeled cholesterol appearing in the medium is used to determine the cholesterol efflux mediating activity of the test polypeptide. […] J774 cells plated on 24-well culture plates were labeled (48 h) with 1 μCi/ml of [^3H]cholesterol in 1% FBS. A cAMP analog was added (0.3 mM) to some wells (12-18 h) to up-regulate ABCA1 expression. Following cAMP treatment, cells were rinsed, and then exposed to peptide in serum-free medium. Panel A provides data showing the dependence of cholesterol efflux on concentration (lipid-free SEQ ID NO:2 peptide (squares) and lipid-free apolipoprotein(apo)A-I (circles)); cAMP-treated cells were used. The percentage of cellular [^3H]cholesterol that appeared in the medium at 8 h is shown, subtracting background efflux to serum-free medium alone. Values are means±SD; apoA-I, n=8; SEQ ID NO:2 peptide, n=3. Km values reflecting efficiency for cholesterol efflux stimulation were calculated (Prism 4 software) from concentration-dependence curves using the Michaelis-Menton equation and 4 h efflux data.

[5] = system: HDL subpopulations in human plasma; assay: preβ-1 HDL formation in human plasma (2D gel electrophoresis, apoA-I Western blot); assay type: biochemical; settings: peptide 30 μg/ml (peptide:apoA-I mole ratio ~1:5), 5 minutes, 37° C.
Procedure: Peptide of the invention may also be screened for the ability to induce preβ-1 HDL formation in human plasma. In one example of such an analysis, a peptide to be tested is added to human plasma. Plasma with and without peptide are incubated and then evaluated, e.g., by agarose gel electrophoresis in the first dimension followed by native gradient gel electrophoresis in the second dimension to evaluate the population of HDL particles present in the human plasma samples.
Peptides corresponding to SEQ ID NO:2 were added to human plasma at a final concentration of 30 μg/ml (i.e. peptide:apoA-I mole ratio ˜1:5). Plasma with and without peptide were subsequently incubated for 5 minutes at 37° C. Following incubations, samples of plasma were subjected to agarose gel electrophoresis in the first dimension followed by native gradient gel electrophoresis in the second dimension. Proteins on resulting gels were transferred to nitrocellulose and analyzed by Western-blot analysis using an apoA-I antibody. The distribution of HDL subpopulations in plasma treated with vehicle alone (open bars), SEQ ID NO:2 peptide composed of all D-amino acids (intermediate shade), and SEQ ID NO:2 peptide composed of all L-amino acids (darkly shaded) is shown. […] Reductions of α-HDL subpopulations indicate that peptides specifically interact with distinct HDL species to generate preβ-1 apoA-I particles.

T1 sequence (P41233 whole entry): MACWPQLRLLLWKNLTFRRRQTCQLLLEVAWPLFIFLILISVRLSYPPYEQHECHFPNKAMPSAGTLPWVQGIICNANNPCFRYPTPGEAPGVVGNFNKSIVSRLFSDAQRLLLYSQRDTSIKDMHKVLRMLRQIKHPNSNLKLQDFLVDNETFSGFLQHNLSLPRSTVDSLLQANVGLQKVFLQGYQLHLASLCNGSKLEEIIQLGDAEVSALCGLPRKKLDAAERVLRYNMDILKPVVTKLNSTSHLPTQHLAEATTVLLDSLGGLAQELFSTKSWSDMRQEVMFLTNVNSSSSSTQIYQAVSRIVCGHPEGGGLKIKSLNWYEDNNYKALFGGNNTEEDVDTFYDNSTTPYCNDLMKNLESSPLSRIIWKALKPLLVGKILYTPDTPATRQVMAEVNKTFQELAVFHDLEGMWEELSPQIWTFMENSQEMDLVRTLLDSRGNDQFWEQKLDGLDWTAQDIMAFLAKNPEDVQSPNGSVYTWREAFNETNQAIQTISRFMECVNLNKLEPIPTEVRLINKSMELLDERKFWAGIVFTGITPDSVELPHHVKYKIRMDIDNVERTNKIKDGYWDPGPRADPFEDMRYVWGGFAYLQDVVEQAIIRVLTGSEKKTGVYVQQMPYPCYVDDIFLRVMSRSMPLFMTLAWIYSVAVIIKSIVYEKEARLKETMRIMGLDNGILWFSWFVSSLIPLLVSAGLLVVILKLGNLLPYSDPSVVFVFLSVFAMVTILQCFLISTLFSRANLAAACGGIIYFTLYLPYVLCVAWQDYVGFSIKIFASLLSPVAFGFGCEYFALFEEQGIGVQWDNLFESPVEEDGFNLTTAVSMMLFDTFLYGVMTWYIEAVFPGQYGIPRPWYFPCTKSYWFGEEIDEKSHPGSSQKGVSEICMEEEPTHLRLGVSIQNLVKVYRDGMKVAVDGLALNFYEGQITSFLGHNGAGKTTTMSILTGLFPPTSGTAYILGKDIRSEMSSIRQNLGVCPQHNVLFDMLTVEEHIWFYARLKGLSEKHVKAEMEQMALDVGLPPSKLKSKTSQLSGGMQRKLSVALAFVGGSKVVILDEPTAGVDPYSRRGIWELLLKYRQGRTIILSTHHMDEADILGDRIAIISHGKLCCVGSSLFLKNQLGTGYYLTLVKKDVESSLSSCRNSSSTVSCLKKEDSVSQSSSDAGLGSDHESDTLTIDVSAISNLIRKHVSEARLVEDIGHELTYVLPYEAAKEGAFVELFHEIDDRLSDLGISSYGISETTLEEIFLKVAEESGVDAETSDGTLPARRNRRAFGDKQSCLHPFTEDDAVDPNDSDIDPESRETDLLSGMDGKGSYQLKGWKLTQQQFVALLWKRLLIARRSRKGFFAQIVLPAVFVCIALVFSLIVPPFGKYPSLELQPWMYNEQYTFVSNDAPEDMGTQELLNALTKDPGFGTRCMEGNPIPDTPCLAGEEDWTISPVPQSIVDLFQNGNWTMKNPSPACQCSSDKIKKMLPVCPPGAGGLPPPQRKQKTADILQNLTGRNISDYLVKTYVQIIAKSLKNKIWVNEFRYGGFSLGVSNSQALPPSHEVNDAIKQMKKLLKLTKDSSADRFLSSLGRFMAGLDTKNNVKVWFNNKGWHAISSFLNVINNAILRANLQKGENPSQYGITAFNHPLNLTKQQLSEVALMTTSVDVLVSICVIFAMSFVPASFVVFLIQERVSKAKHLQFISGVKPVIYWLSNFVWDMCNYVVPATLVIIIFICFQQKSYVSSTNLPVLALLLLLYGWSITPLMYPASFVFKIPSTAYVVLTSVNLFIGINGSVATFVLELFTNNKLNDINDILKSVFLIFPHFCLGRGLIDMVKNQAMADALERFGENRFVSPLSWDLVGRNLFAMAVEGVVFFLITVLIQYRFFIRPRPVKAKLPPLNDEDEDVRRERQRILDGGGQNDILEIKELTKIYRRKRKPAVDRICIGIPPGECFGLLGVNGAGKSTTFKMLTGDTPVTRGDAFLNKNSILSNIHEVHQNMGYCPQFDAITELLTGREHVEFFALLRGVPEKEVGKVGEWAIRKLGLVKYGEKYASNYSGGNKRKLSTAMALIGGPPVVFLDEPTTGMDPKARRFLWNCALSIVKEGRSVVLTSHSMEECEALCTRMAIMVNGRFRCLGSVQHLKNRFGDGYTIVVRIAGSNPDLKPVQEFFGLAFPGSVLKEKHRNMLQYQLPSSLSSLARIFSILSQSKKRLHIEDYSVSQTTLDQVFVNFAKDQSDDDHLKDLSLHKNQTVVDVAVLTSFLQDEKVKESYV

Compound: C[C@H](N)C(=O)O [Alanine]
Hydrophobicity (scaled computational log(P)) [1]: 0.616

Compound: N=C(N)NCCC[C@H](N)C(=O)O [Arginine]
Hydrophobicity (scaled computational log(P)) [1]: 0.000

Compound: NC(=O)C[C@H](N)C(=O)O [Asparagine]
Hydrophobicity (scaled computational log(P)) [1]: 0.236

Compound: N[C@@H](CCC(=O)O)C(=O)O [Glutamate]
Hydrophobicity (scaled computational log(P)) [1]: 0.043

Compound: NCC(=O)O [Glycine]
Hydrophobicity (scaled computational log(P)) [1]: 0.501

Compound: N[C@@H](Cc1c[nH]cn1)C(=O)O [Histidine]
Hydrophobicity (scaled computational log(P)) [1]: 0.165

Compound: CC[C@H](C)[C@H](N)C(=O)O [Isoleucine]
Hydrophobicity (scaled computational log(P)) [1]: 0.943

Compound: NCCCC[C@H](N)C(=O)O [Lysine]
Hydrophobicity (scaled computational log(P)) [1]: 0.283

Compound: CSCC[C@H](N)C(=O)O [Methionine]
Hydrophobicity (scaled computational log(P)) [1]: 0.738

Compound: N[C@@H](Cc1ccccc1)C(=O)O [Phenylalanine]
Hydrophobicity (scaled computational log(P)) [1]: 1.00

Compound: O=C(O)[C@@H]1CCCN1 [Proline]
Hydrophobicity (scaled computational log(P)) [1]: 0.711

Compound: C[C@@H](O)[C@H](N)C(=O)O [Threonine]
Hydrophobicity (scaled computational log(P)) [1]: 0.450

Compound: N[C@@H](Cc1c[nH]c2ccccc12)C(=O)O [Tryptophan]
Hydrophobicity (scaled computational log(P)) [1]: 0.878

Compound: N[C@@H](Cc1ccc(O)cc1)C(=O)O [Tyrosine]
Hydrophobicity (scaled computational log(P)) [1]: 0.880

Compound: CC(C)[C@H](N)C(=O)O [Valine]
Hydrophobicity (scaled computational log(P)) [1]: 0.825

% cholesterol efflux/4 hours (ABCA1 [2]; peptide 0.1 μg/ml): 0.58%
% cholesterol efflux/4 hours (ABCA1 [2]; peptide 0.3 μg/ml): 1.00%
% cholesterol efflux/4 hours (ABCA1 [2]; peptide 1.0 μg/ml): 2.12%
% cholesterol efflux/4 hours (ABCA1 [2]; peptide 3.0 μg/ml): 5.25%
% cholesterol efflux/4 hours (ABCA1 [2]; peptide 10 μg/ml): 4.15%
% cholesterol efflux/4 hours (ABCA1 [2]; peptide 30 μg/ml): 3.70%
effect of acrolein on cholesterol efflux activity (ABCA1 [3]): modest effects of acrolein
% cholesterol efflux (8 hours) (ABCA1 [4]; + cAMP (ABCA1 upregulated)): 8.25 ± 0.33%
% cholesterol efflux (8 hours) (ABCA1 [4]; no cAMP): 2.66 ± 0.41%
Compound: ELRDRLEAWLDLLRELLERL [N1154-10]

Compound: ELREKLEAFFELFREFLERF (synthetic amphipathic alpha-helix peptide ligand for ATP-binding cassette transporter A1 (ABCA1) having cholesterol efflux activity) [SEQ ID NO:33]
cholesterol efflux from cells induced for the ABCA1 response (in words) (ABCA1 [4]): relatively high-levels of cholesterol efflux

Compound: ELREKLEALFELFREFLERF (synthetic amphipathic alpha-helix peptide ligand for ATP-binding cassette transporter A1 (ABCA1) having cholesterol efflux activity) [SEQ ID NO:32]
cholesterol efflux from cells induced for the ABCA1 response (in words) (ABCA1 [4]): relatively high-levels of cholesterol efflux

concentration giving max. efflux (ABCA1 [4]; concentration dependence, cAMP treated cells): 3 µg/mL
Compound: ELREKLEAWFELFAEFFARF (synthetic amphipathic alpha-helix peptide N356-6 ligand for ATP-binding cassette transporter A1 (ABCA1) having cholesterol efflux activity)

Compound: ELREKLEAWFELFREFLERF ([dE][dL][dR][dE][dK][dL][dE][dA][dW][dF][dE][dL][dF][dR][dE][dF][dL][dE][dR][dF])
change in HDL subpopulations in human plasma [5]: preferential increase in preβ-1 HDL

% cholesterol efflux/4 hours (ABCA1 [2]; peptide 0.1 μg/ml): 0.15%
% cholesterol efflux/4 hours (ABCA1 [2]; peptide 0.3 μg/ml): 0.52%
% cholesterol efflux/4 hours (ABCA1 [2]; peptide 1.0 μg/ml): 1.72%
% cholesterol efflux/4 hours (ABCA1 [2]; peptide 3.0 μg/ml): 4.60%
% cholesterol efflux/4 hours (ABCA1 [2]; peptide 10 μg/ml): 3.62%
% cholesterol efflux/4 hours (ABCA1 [2]; peptide 30 μg/ml): 3.66%
effect of acrolein on cholesterol efflux activity (ABCA1 [3]): Acrolein greatly decreased the activity
% cholesterol efflux (8 hours) (ABCA1 [4]; + cAMP (ABCA1 upregulated)): 5.26 ± 0.95%
% cholesterol efflux (8 hours) (ABCA1 [4]; no cAMP): 2.29 ± 0.16%
Compound: ELREKLEAWFELFREFLERF [N965-8]

Compound: ELREKLEAWFELFREFLERFKS (synthetic amphipathic alpha-helix peptide ligand for ATP-binding cassette transporter A1 (ABCA1) having cholesterol efflux activity) [SEQ ID NO:31]
stimulation of ABCA1 cholesterol efflux (in words) (ABCA1 [4]; lipid-free peptide, J774 macrophages ± cAMP): stimulates ABCA1 cholesterol efflux, similar to 20-mer SEQ ID NO:2 peptide

% cholesterol efflux (8 hours) (ABCA1 [4]; + cAMP (ABCA1 upregulated)): 6.99 ± 1.4%
% cholesterol efflux (8 hours) (ABCA1 [4]; no cAMP): 0.91 ± 0.1%
Compound: ELREKLEAWREAFEEFFARFKS [N257-11]

Compound: apoA-I: full-length apolipoprotein A-I, polypeptide comprising 243 amino acids, used lipid-free as comparator [reference compound]
Km (ABCA1 [4]; lipid-free, cAMP-treated cells, 4 h efflux data, read-out: Km for cholesterol efflux stimulation, molar basis): 0.12 ± 0.02 µM
Km for cholesterol efflux stimulation, mass basis (ABCA1 [4]; lipid-free, cAMP-treated cells, Michaelis-Menton fit of 4 h efflux data): 3.4 ± 0.6 µg/mL
